These molecules were tested against T1, human Npt2a (Homo sapiens, UniProt Q06495) (assay: Npt2a activity cell based assay, membrane potential dye, CHO T-REx hNpt2a cells). Details: doxycycline-induced, depolarization by sodium phosphate influx, average or median values if tested more than once.
T1 construct: expressed in transfected cells
T1 sequence (Q06495 1-639): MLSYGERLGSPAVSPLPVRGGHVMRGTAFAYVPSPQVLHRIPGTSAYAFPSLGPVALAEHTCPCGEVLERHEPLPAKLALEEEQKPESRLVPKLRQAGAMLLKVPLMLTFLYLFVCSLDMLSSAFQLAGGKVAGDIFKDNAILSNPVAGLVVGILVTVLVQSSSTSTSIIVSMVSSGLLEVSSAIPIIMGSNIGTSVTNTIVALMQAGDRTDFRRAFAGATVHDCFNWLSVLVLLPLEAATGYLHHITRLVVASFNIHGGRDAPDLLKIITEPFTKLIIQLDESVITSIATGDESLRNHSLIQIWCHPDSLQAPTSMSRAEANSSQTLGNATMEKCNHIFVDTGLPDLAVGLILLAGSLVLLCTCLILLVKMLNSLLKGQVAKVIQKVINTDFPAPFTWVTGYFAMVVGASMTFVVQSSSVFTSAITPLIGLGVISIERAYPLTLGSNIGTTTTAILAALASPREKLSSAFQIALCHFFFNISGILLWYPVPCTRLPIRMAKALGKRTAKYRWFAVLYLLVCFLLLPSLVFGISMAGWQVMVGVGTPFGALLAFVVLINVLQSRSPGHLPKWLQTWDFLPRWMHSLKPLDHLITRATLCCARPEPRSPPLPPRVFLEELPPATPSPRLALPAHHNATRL
In short: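 Doxycycline-induced (0.5 μg/mL, 24 h) CHO T-REx cells were loaded with membrane potential dye in sodium-free NHE buffer (pH 7.4) and exposed to compound (50 μM–1 nM, 5 min, room temperature).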

SMILES | IC50 [nM]
CCc1c(-c2ccc(F)cc2)nn(C)c1Nc1cc(-n2nc(C)c3ccncc32)ncn1 [Example 206, N-[4-ethyl-3-(4-fluorophenyl)-1-methyl-1H-pyrazol-5-yl]-6-(3-methyl-1H-pyrazolo[3,4-c]pyridin-1-yl)pyrimidin-4-amine] | 9
Cc1nn(-c2cc(Nc3nn(CC4CC4)c(-c4ccc(F)cc4)c3Cl)ncn2)c2cnccc12 [Example 207, N-[4-chloro-1-(cyclopropylmethyl)-5-(4-fluorophenyl)-1H-pyrazol-3-yl]-6-(3-methyl-1H-pyrazolo[3,4-c]pyridin-1-yl)pyrimidin-4-amine] | 18
Cc1nn(-c2cc(Nc3c(C)nn(-c4ccc(C#N)cc4)c3C)ncn2)c(C)c1Cl [Example 208, 4-(4-{[6-(4-chloro-3,5-dimethyl-1H-pyrazol-1-yl)pyrimidin-4-yl]amino}-3,5-dimethyl-1H-pyrazol-1-yl)benzonitrile] | 465
CCc1c(-c2ccc(C#N)cc2)nn(C)c1Nc1cc(-n2nc(C)cc2C)ncn1 [Example 209, 4-(5-{[6-(3,5-dimethyl-1H-pyrazol-1-yl)pyrimidin-4-yl]amino}-4-ethyl-1-methyl-1H-pyrazol-3-yl)benzonitrile] | 18
CCc1c(Nc2cc(-n3nc(C)cc3C)ncn2)nn(C)c1-c1ccc(C#N)cc1 [Example 210, 4-(3-{[6-(3,5-dimethyl-1H-pyrazol-1-yl)pyrimidin-4-yl]amino}-4-ethyl-1-methyl-1H-pyrazol-5-yl)benzonitrile] | 13
Cc1nn(-c2cc(Nc3c(C)c(-c4ccc(C#N)cc4)nn3C)ncn2)c2c1C(=O)CC2 [Example 211, 4-(1,4-dimethyl-5-{[6-(3-methyl-4-oxo-5,6-dihydrocyclopenta[c]pyrazol-1(4H)-yl)pyrimidin-4-yl]amino}-1H-pyrazol-3-yl)benzonitrile] | 200
Cc1cc(C)n(-c2cc(Nc3nn(CCC4CC4)c(-c4ccc(C#N)cc4)c3C)ncn2)n1 [Example 212, 4-[1-(2-cyclopropylethyl)-3-{[6-(3,5-dimethyl-1H-pyrazol-1-yl)pyrimidin-4-yl]amino}-4-methyl-1H-pyrazol-5-yl]benzonitrile] | 1170
CCOC(=O)c1c(C)nn(-c2cc(Nc3c(C)c(-c4ccc(C#N)cc4)nn3C)ncn2)c1C [Example 213, ethyl 1-(6-{[3-(4-cyanophenyl)-1,4-dimethyl-1H-pyrazol-5-yl]amino}pyrimidin-4-yl)-3,5-dimethyl-1H-pyrazole-4-carboxylate] | 2
COc1c(Nc2cc(-n3nc(C)c4ccncc43)ncn2)n[nH]c1-c1ccc(C#N)cc1 [Example 214, 4-(4-methoxy-3-{[6-(3-methyl-1H-pyrazolo[3,4-c]pyridin-1-yl)pyrimidin-4-yl]amino}-1H-pyrazol-5-yl)benzonitrile] | 86
CCc1c(Nc2cc(-n3nc(C)c(C4(O)CCC4)c3C)ncn2)nn(C)c1-c1ccc(F)cc1 [Example 215, 1-[1-(6-{[4-ethyl-5-(4-fluorophenyl)-1-methyl-1H-pyrazol-3-yl]amino}pyrimidin-4-yl)-3,5-dimethyl-1H-pyrazol-4-yl]cyclobutanol] | 250
CCc1c(-c2ccc(C#N)cc2)nn(C)c1Nc1cc(-n2nc(C)cc2C(F)F)ncn1 [Example 216, 4-[5-({6-[5-(difluoromethyl)-3-methyl-1H-pyrazol-1-yl]pyrimidin-4-yl}amino)-4-ethyl-1-methyl-1H-pyrazol-3-yl]benzonitrile] | 12
CCc1c(Nc2cc(-n3nc(C)cc3C(F)F)ncn2)nn(C)c1-c1ccc(C#N)cc1 [Example 217, 4-[3-({6-[5-(difluoromethyl)-3-methyl-1H-pyrazol-1-yl]pyrimidin-4-yl}amino)-4-ethyl-1-methyl-1H-pyrazol-5-yl]benzonitrile] | 2
Cc1nn(-c2cc(Nc3c(Cl)c(-c4ccc(F)cc4)nn3CC3CC3)ncn2)c2cnccc12 [Example 218, N-[4-chloro-1-(cyclopropylmethyl)-3-(4-fluorophenyl)-1H-pyrazol-5-yl]-6-(3-methyl-1H-pyrazolo[3,4-c]pyridin-1-yl)pyrimidin-4-amine] | 32
CCOC(=O)c1c(C)nn(-c2cc(Nc3c(C)nn(-c4ccc(C#N)cc4)c3C)ncn2)c1C [Example 219, ethyl 1-(6-{[1-(4-cyanophenyl)-3,5-dimethyl-1H-pyrazol-4-yl]amino}pyrimidin-4-yl)-3,5-dimethyl-1H-pyrazole-4-carboxylate] | < 1.6
CCc1c(Nc2cc(-n3nc(C)c(C4(O)COC4)c3C)ncn2)nn(C)c1-c1ccc(F)cc1 [Example 220, 3-[1-(6-{[4-ethyl-5-(4-fluorophenyl)-1-methyl-1H-pyrazol-3-yl]amino}pyrimidin-4-yl)-3,5-dimethyl-1H-pyrazol-4-yl]oxetan-3-ol] | 320
Cc1nn(-c2cc(Nc3c(C)c(-c4ccc(C#N)cc4)nn3CCC3CC3)ncn2)c(C)c1Cl [Example 221, 4-[5-{[6-(4-chloro-3,5-dimethyl-1H-pyrazol-1-yl)pyrimidin-4-yl]amino}-1-(2-cyclopropylethyl)-4-methyl-1H-pyrazol-3-yl]benzonitrile] | 6
Cc1nn(-c2cc(Nc3nn(CCC4CC4)c(-c4ccc(C#N)cc4)c3C)ncn2)c(C)c1Cl [Example 222, 4-[3-{[6-(4-chloro-3,5-dimethyl-1H-pyrazol-1-yl)pyrimidin-4-yl]amino}-1-(2-cyclopropylethyl)-4-methyl-1H-pyrazol-5-yl]benzonitrile] | 44
CCc1c(Nc2cc(-n3nc(C)c4ncccc43)ncn2)nn(C)c1-c1ccc(F)cc1 [Example 223, N-[4-ethyl-5-(4-fluorophenyl)-1-methyl-1H-pyrazol-3-yl]-6-(3-methyl-1H-pyrazolo[4,3-b]pyridin-1-yl)pyrimidin-4-amine] | 36
CCc1c(Nc2cc(-n3nc(C)c4cnccc43)ncn2)nn(C)c1-c1ccc(F)cc1 [Example 224, N-[4-ethyl-5-(4-fluorophenyl)-1-methyl-1H-pyrazol-3-yl]-6-(3-methyl-1H-pyrazolo[4,3-c]pyridin-1-yl)pyrimidin-4-amine] | 47
CCc1c(-c2ccc(F)cc2)nn(CC2CC2)c1Nc1cc(-n2nc(C)c(-c3nnc(C)o3)c2C)ncn1 [Example 225, N-[1-(cyclopropylmethyl)-4-ethyl-3-(4-fluorophenyl)-1H-pyrazol-5-yl]-6-[3,5-dimethyl-4-(5-methyl-1,3,4-oxadiazol-2-yl)-1H-pyrazol-1-yl]pyrimidin-4-amine] | 8
CCc1c(-c2ccc(F)cc2)nn(C)c1Nc1cc(-n2nc(C)c(-c3nnc(C)o3)c2C)ncn1 [Example 226, 6-[3,5-dimethyl-4-(5-methyl-1,3,4-oxadiazol-2-yl)-1H-pyrazol-1-yl]-N-[4-ethyl-3-(4-fluorophenyl)-1-methyl-1H-pyrazol-5-yl]pyrimidin-4-amine] | 190
Cc1c(Nc2cc(-n3nc(C)c4ccncc43)ncn2)nn(C)c1-c1ccc(C#N)cc1 [Example 228, 4-(1,4-dimethyl-3-{[6-(3-methyl-1H-pyrazolo[3,4-c]pyridin-1-yl)pyrimidin-4-yl]amino}-1H-pyrazol-5-yl)benzonitrile] | 210
CCc1c(-c2ccc(F)cc2)nn(C)c1Nc1cc(-n2nc(C)c3ncccc32)ncn1 [Example 229, N-[4-ethyl-3-(4-fluorophenyl)-1-methyl-1H-pyrazol-5-yl]-6-(3-methyl-1H-pyrazolo[4,3-b]pyridin-1-yl)pyrimidin-4-amine] | 350

Reference: patent US11208400B2, “Substituted 6-(1H-pyrazol-1-yl)pyrimidin-4-amine derivatives and uses thereof” (Bayer Aktiengesellschaft, priority 2016, dated 2021)
